Measured values from ChEMBL document CHEMBL5331045, “Recent advances in β-lactamase inhibitor chemotypes and inhibition modes” (Eur J Med Chem, 2022).
pIC50, pKi: −log10 of the molar value. One block for each compound: values may come before it.

Experiments:
[1] = Binding affinity to beta-lactamase AmpC (unknown origin) assessed as inhibition constant by measuring nitrocefin hydrolysis by spectrometric analysis; parameters: species or system Homo sapiens
[2] = Binding affinity to Escherichia coli CTX-M-9 assessed as inhibition constant using nitrocefin as substrate by microplate reader analysis
[3] = target: Class A carbapenemase KPC-2 (Escherichia coli, UniProt A8DS27); assay: Binding affinity to Escherichia coli KPC-2 assessed as inhibition constant using nitrocefin as substrate by microplate reader analysis
Chain of Class A carbapenemase KPC-2 (A8DS27 whole entry): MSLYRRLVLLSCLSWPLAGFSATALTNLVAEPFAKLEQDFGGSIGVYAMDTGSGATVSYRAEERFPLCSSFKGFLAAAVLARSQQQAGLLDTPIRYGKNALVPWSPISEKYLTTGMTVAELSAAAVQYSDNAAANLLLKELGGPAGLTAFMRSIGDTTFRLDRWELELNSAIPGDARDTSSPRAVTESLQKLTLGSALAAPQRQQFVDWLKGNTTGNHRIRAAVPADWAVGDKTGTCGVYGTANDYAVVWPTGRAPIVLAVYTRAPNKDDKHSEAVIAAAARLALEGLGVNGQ

[4] = target: Beta-lactamase CTX-M-14 (Escherichia coli, UniProt Q9L5C7); assay: Binding affinity to Escherichia coli CTX-M-14 assessed as inhibition constant using nitrocefin as substrate by microplate reader analysis
Chain of Beta-lactamase CTX-M-14 (Q9L5C7 whole entry): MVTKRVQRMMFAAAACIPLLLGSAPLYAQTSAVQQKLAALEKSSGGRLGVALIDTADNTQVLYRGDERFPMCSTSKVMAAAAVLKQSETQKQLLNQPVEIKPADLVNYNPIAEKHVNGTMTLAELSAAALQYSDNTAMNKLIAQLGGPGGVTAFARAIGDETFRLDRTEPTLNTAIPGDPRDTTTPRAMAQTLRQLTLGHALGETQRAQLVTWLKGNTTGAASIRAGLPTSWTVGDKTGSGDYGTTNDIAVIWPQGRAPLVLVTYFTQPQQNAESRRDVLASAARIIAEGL

[5] = target: Beta-lactamase CTX-M-27 (Escherichia coli, UniProt Q840M4); assay: Binding affinity to Escherichia coli CTX-M-27 assessed as inhibition constant using nitrocefin as substrate by microplate reader analysis
Chain of Beta-lactamase CTX-M-27 (Q840M4 whole entry): as the sequence (Q9L5C7 whole entry) above, with D242G counted along it

[6] = target: Beta-lactamase TEM-1 (Escherichia coli, UniProt Q4GY26); assay: Binding affinity to Escherichia coli TEM1 assessed as inhibition constant using nitrocefin as substrate by microplate reader analysis
Chain of Beta-lactamase TEM-1 (Q4GY26 whole entry): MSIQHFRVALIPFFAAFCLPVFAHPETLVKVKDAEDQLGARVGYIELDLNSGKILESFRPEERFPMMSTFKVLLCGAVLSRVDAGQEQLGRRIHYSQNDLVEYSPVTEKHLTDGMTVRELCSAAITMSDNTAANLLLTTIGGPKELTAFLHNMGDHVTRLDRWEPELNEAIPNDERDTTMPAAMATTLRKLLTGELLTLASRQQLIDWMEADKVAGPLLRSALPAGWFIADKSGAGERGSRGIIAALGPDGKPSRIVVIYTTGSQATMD

[7] = Binding affinity to Escherichia coli SHV-2 assessed as inhibition constant using nitrocefin as substrate by microplate reader analysis
[8] = Binding affinity to Escherichia coli OXA-48 assessed as inhibition constant using nitrocefin as substrate by microplate reader analysis
[9] = target: Beta-lactamase (Escherichia coli K-12, UniProt P00811); assay: Binding affinity to Escherichia coli AmpC assessed as inhibition constant using nitrocefin as substrate by microplate reader analysis
Chain of Beta-lactamase (Escherichia coli K-12, UniProt P00811) (P00811 whole entry): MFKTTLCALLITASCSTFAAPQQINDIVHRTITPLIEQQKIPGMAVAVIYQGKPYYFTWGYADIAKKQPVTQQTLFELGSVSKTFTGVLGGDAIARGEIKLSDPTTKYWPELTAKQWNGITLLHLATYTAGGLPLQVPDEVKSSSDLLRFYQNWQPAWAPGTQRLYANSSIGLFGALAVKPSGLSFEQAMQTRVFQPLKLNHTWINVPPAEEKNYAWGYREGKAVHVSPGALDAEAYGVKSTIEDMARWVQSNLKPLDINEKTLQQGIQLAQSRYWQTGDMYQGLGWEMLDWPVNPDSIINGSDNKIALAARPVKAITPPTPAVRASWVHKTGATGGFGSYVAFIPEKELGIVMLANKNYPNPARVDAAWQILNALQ

[10] = Binding affinity to Escherichia coli CTX-M-15 assessed as inhibition constant using nitrocefin as substrate by microplate reader analysis
[11] = Binding affinity to AmpC (unknown origin) assessed as inhibition constant; parameters: species or system Homo sapiens
[12] = Binding affinity to N289A (unknown origin) assessed as inhibition constant; parameters: species or system Homo sapiens
[13] = Binding affinity to TEM1 (unknown origin) assessed as inhibition constant; parameters: species or system Homo sapiens
[14] = Binding affinity to TEM30 (unknown origin) assessed as inhibition constant; parameters: species or system Homo sapiens
[15] = Inhibition of Pseudomonas aeruginosa KPC2
[16] = target: Beta-lactamase (Pseudomonas aeruginosa (strain ATCC 15692 / PAO1 / 1C / PRS 101 / LMG12228), UniProt P24735); assay: Inhibition of Pseudomonas aeruginosa AmpC
Chain of Beta-lactamase (Pseudomonas aeruginosa (strain ATCC 15692 / PAO1 / 1C / PRS 101 / LMG12228), UniProt P24735) (P24735 whole entry): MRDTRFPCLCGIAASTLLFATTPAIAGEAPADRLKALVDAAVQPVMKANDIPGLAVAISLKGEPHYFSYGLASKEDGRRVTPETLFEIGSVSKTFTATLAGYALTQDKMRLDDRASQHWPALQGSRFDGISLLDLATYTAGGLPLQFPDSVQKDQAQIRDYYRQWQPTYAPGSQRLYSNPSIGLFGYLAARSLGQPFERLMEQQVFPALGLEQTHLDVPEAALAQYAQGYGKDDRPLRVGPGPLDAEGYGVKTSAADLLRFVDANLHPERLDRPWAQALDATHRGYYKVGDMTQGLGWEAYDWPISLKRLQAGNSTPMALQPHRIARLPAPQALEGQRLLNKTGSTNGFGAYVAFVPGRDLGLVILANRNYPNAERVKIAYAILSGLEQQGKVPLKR

[17] = Inhibition of Pseudomonas aeruginosa OXA-24
[18] = Inhibition of KPC-2 (unknown origin); parameters: species or system Homo sapiens
[19] = Binding affinity to Acinetobacter derived cephalosporinase 7 (D24-K383 residues) assessed as inhibition constant
[20] = test system: Escherichia coli; assay: Antimicrobial activity against Escherichia coli expressing TEM10 in presence of piperacillin; type: functional
[21] = test system: Escherichia coli; assay: Antimicrobial activity against Escherichia coli expressing OXA-23 in presence of piperacillin; type: functional
[22] = test system: Escherichia coli; assay: Antimicrobial activity against Escherichia coli expressing OXA-40 in presence of piperacillin; type: functional
[23] = test system: Escherichia coli; assay: Antimicrobial activity against Escherichia coli expressing CMY-2 in presence of piperacillin; type: functional
[24] = test system: Escherichia coli; assay: Antimicrobial activity against Escherichia coli expressing SHV-12 in presence of piperacillin; type: functional
[25] = test system: Escherichia coli; assay: Antimicrobial activity against Escherichia coli expressing TEM1 in presence of piperacillin; type: functional
[26] = test system: Escherichia coli; assay: Antimicrobial activity against Escherichia coli expressing CTX-M-15 in presence of piperacillin; type: functional
[27] = test system: Escherichia coli; assay: Antimicrobial activity against Escherichia coli expressing AmpC in presence of piperacillin; type: functional
[28] = test system: Escherichia coli; assay: Antimicrobial activity against Escherichia coli expressing DHA-1 in presence of piperacillin; type: functional
[29] = test system: Escherichia coli; assay: Antimicrobial activity against Escherichia coli expressing OXA-48 in presence of piperacillin; type: functional
[30] = test system: Escherichia coli; assay: Antimicrobial activity against Escherichia coli expressing KPC-2 in presence of piperacillin; type: functional
[31] = test system: Escherichia coli; assay: Antimicrobial activity against Escherichia coli expressing OXA-10 in presence of piperacillin; type: functional
[32] = target: Carbapenem-hydrolyzing beta-lactamase KPC (Klebsiella pneumoniae, UniProt Q9F663); assay: Inhibition of Klebsiella pneumoniae beta-lactamase KPC-2 using nitrocefin as substrate measured after 20 mins
Chain of Carbapenem-hydrolyzing beta-lactamase KPC (Q9F663 whole entry): as the sequence (A8DS27 whole entry) above

[33] = Inhibition of Klebsiella pneumoniae beta-lactamase CMY-2 using nitrocefin as substrate measured after 20 mins
[34] = Inhibition of Escherichia coli beta-lactamase CTX-M-15 using nitrocefin as substrate measured after 20 mins
[35] = Binding affinity to KPC-2 (unknown origin) assessed as inhibition constant; parameters: species or system Homo sapiens
[36] = Binding affinity to CTX-M-14 (unknown origin) assessed as inhibition constant; parameters: species or system Homo sapiens
[37] = Inhibition of Enterobacter CTX-M-15 incubated for 15 mins
[38] = Inhibition of Enterobacter VIM-2 incubated for 15 mins
[39] = Inhibition of Enterobacter SHV-5 incubated for 15 mins
[40] = Inhibition of Enterobacter NDM-1 incubated for 15 mins
[41] = Inhibition of Enterobacter OXA-1 incubated for 15 mins
[42] = Inhibition of Enterobacter IMP-1 incubated for 15 mins
[43] = Inhibition of Enterobacter KPC-2 incubated for 15 mins

pKi [1]: 2.55
Structure (SMILES): O=C(Nc1cccc(-c2nnn[nH]2)c1)c1cccc(F)c1

pKi [3]: 4.01
pKi [4]: 7.07
pKi [5]: 6.55
Ki [6]: Not Active
pKi [9]: 3.41
Structure (SMILES): O=C(Nc1cccc(-c2nnn[nH]2)c1)c1cc(C(F)(F)F)cc2[nH]cnc12
pKi [2]: 7.05
pKi [7]: 4.59
pKi [8]: 3.32
pKi [10]: 6.60

pKi [11]: 8.00
pKi [12]: 8.52
pKi [13]: 6.97
pKi [14]: 5.42
Structure (SMILES): O=C(O)/C=C/c1cccc([C@H](NC(=O)Cc2cccs2)B(O)O)c1

pIC50 [15]: 8.40
pIC50 [16]: 7.85
pIC50 [17]: 6.72
Structure (SMILES): CC1=C[C@H]2CN(C(=O)N2OS(=O)(=O)O)[C@@H]1C(N)=O

pIC50 [18]: 5.33
pKi [19]: 5.21
Structure (SMILES): O=C(O)c1cn(CB(O)O)nn1

MIC [20]: 4 µg/mL
MIC [21]: 4 µg/mL
MIC [22]: 8 µg/mL
MIC [23]: 2 µg/mL
MIC [24]: 4 µg/mL
MIC [25]: 4 µg/mL
MIC [26]: 4 µg/mL
MIC [27]: 4 µg/mL
MIC [28]: 4 µg/mL
MIC [29]: 4 µg/mL
MIC [30]: 4 µg/mL
MIC [31]: 4 µg/mL
Structure (SMILES): C[C@]12CNC(=O)[C@H]1N1C[C@@H](C2)N(OS(=O)(=O)[O-])C1=O.[Na+]

pIC50 [32]: 7.36
pIC50 [33]: 6.94
pIC50 [34]: 6.85
Structure (SMILES): NS(=O)(=O)C1CC[C@@H]2CN1C(=O)N2OS(=O)(=O)O (stereo partly drawn)

pKi [35]: 3.71
pKi [36]: 2.60
Structure (SMILES): CC(c1nnn[nH]1)n1cnc2sc3c(c2c1=O)CCCC3 (single isomer, unassigned)

pIC50 [37]: 7.74
pIC50 [38]: 5.04
pIC50 [39]: 6.43
pIC50 [40]: 4.42
pIC50 [41]: 7.18
pIC50 [42]: < 4.00
pIC50 [43]: 7.10
Structure (SMILES): CCC(=O)N[C@H]1Cc2cccc(C(=O)O)c2OB1O [LEDABORBACTAM]
